Assay results from US10640515B2, “Hepatitis C virus inhibitor and uses thereof” (priority 2016, dated 2020).

Legend:
[1] = in the rats, reported in a literature; cited from earlier work
[2] = system: HCV 1b-genotype replicon Con1b; assay: HCV replicon luciferase assay, HCV-1b replicon (Huh7-Con1b, firefly luciferase); format: cell-based; settings: Hepatitis C virus, Huh7-Con1b cells, 72 hours
Text: (§1) In brief, three stably-transfected cell lines containing different HCV genotypes of replicons were used to test activity of the compounds in inhibiting the HCV replication.
(§2) A Huh7-Con1b cell line contained an HCV 1b-genotype replicon Con1b and a reporter gene of firefly luciferase. An Huh7-H77 and an Huh7-JFH1 cell line both contained a reporter gene of renilla luciferase and respectively contained an HCV 1a-genetype replicon H77 and an HCV 2a-genetype replicon JFH1. The replication level of HCV in host cells can be characterized by the expression of the firefly luciferase gene or the renilla luciferase gene. The effect of the compounds described herein on the HCV replication can be evaluated through a chemiluminescence detection of the expression of the above two luciferase genes. Meanwhile, the CC50 value of each Huh7 cell line was measured using a CellTiter GLO kit to evaluate the toxicity of the compounds.
(§3) The compounds described herein were subjected to three-fold serial dilutions using a Bravo liquid treatment system to obtain a total of 11 concentration points prior to cell plating. The prepared compounds were added to cell culture plates using an Echo 550 system. The Huh7-H77 and the Huh7-JFH1 cells were inoculated into the 96-well plate added with the compounds at an amount of 10000 cells per well. The Huh7-Con1b and the Huh7 cells were inoculated into the 384-well plate added with the compounds at an amount of 5000 cells per well. The cell culture plates were incubated in a CO2 incubator (5%) at 37° C. for 72 hours.
The 384-well plate was taken out of the incubator and cooled at room temperature for 30 minutes. After removing the medium, each well was added with 50 μL of DPBS (Dulbecco's Phosphate Buffered Saline) and then added with 50 μL of a Britelit plus reagent (PerkinElmer Inc.). Then the 384-well plate was placed in a shaker at a shaking rate of 1000 rpm at room temperature for 1 minute. Finally, the 384-well plate was read using an Envision Plate Reader at a signal accumulation time of per well of 0.1 s.

[3] = system: HCV 1a-genetype replicon H77; assay: HCV replicon luciferase assay, HCV-1a replicon (Huh7-H77, renilla luciferase); format: cell-based; settings: Hepatitis C virus, Huh7-H77 cells, 72 hours
Text: (§4) The HCV replicon was first reported in Science. 1999 Jul. 2; 285 (5424), 110-3. The HCV replicon system has been one of the most important tools to investigate the RNA replication, pathogenicity and virus persistence of HCV. For example, the replicon has been successfully used to verify the 5′-NCR minimum region essential for HCV RNA replication, in addition, the HCV replicon system has been successfully used as an evaluation model for antiviral drugs.
as §1, §2, §3
(§5) The 96-well plate was taken out of the incubator and cooled at room temperature for 30 minutes. After removing the medium, each well was added with 30 μL of a diluted Promega lysate (diluted using pure water in a volume ratio of 1:4). The 96-well plate was placed in a shaker at a shaking rate of 1000 rpm at room temperature for 15 minutes. Each well was added with 100 μL of a diluted Premega luciferase reagent (Promega Inc.) (diluted using a substrate buffer in a volume ratio of 1:99) and then, the 96-well plate was immediately read using an Envision Plate Reader at a signal accumulation time of per well of 0.1 s.

[4] = CC50 by CellTiter-GLO kit, HCV-1b replicon cell; format: cell-based; settings: human
Text: as §2, §3
(§6) The CellTiter-GLO reagent was heated to room temperature. The 384-well plate plated with the Huh 7 cells was transferred from the incubator and cooled at room temperature for 20 minutes. Each well was added with 50 μL of the CellTiter-GLO reagent (Promega Inc.), and then the 384-well plate was shaken for 2 minutes. The 384-well plate was subsequently incubated in a dark environment at room temperature for 10 minutes. After the incubation, the 384-well plate was read using an Envision Plate Reader at a signal accumulation time of per well of 0.1 s.

[5] = CC50 by CellTiter-GLO kit, HCV-2a replicon cell; format: cell-based; settings: human
Text: as §2, §3, §6

[6] = CC50 by CellTiter-GLO kit, HCV-1a replicon cell; format: cell-based; settings: human
Text: as §2, §3, §6

[7] = system: HCV 2a-genetype replicon JFH1; assay: HCV replicon luciferase assay, HCV-2a replicon (Huh7-JFH1, renilla luciferase); format: cell-based, hepatitis C virus (HCV); settings: Huh7-JFH1 cells
Text: as §4, §1, §2, §3, §5

## COC(=O)N[C@H](C(=O)N1CCC[C@H]1C(=O)Nc1ccc([C@@H]2CC[C@@H](c3ccc(NC(=O)[C@@H]4CCCN4C(=O)[C@@H](NC(=O)OC)C(C)C)cc3)N2c2ccc(C(C)(C)C)cc2)cc1)C(C)C [ABT-267]
[1]
  bioavailability: 100%

## COC(=O)N[C@H](C(=O)N1CCC[C@H]1C(=O)Nc1ccc2c(c1)O[C@H](c1ccccc1)n1c-2cc2cc(NC(=O)[C@@H]3CCCN3C(=O)[C@@H](NC(=O)OC)C(C)C)ccc21)C(C)C [PA6001-A]
[2]
  EC50: 0.00814 nM
[3]
  EC50: 2.94 nM
[4]
  CC50 at 72 h: > 100 nM
[5]
  CC50 at 72 h: > 100 nM
[6]
  CC50 at 72 h: > 100 nM
[7]; Hepatitis C virus, 72 h
  EC50: 0.0546 nM

## COC(=O)N[C@H](C(=O)N1CCC[C@H]1C(=O)Nc1ccc2c(c1)O[C@@H](c1ccccc1)n1c-2cc2cc(NC(=O)[C@@H]3CCCN3C(=O)[C@@H](NC(=O)OC)C(C)C)ccc21)C(C)C [PA6001-B]
[2]
  EC50: 0.0068 nM
[3]
  EC50: 0.0593 nM
[4]
  CC50 at 72 h: > 100 nM
[5]
  CC50 at 72 h: > 100 nM
[6]
  CC50 at 72 h: > 100 nM
[7]; Hepatitis C virus, 72 h
  EC50: 0.0626 nM

## COC(=O)N[C@H](C(=O)N1CCC[C@H]1C(=O)Nc1ccc2c(c1)OC(c1ccccc1)n1c-2cc2cc(NC(=O)[C@@H]3CCCN3C(=O)[C@@H](NC(=O)OC)C(C)C)ccc21)C(C)C (some centres unmarked) [PA6001]
[2]
  EC50: 0.02 nM
[3]
  EC50: 1.57 nM
[4]
  CC50 at 72 h: > 100 nM
[5]
  CC50 at 72 h: > 100 nM
[6]
  CC50 at 72 h: > 100 nM
[7]; Hepatitis C virus, 72 h
  EC50: 0.059 nM

## COC(=O)N[C@H](C(=O)N1CC2(CC2)C[C@H]1C(=O)Nc1ccc2c(c1)OC(c1ccccc1)n1c-2cc2cc(NC(=O)[C@@H]3CC4(CC4)CN3C(=O)[C@@H](NC(=O)OC)C(C)C)ccc21)C(C)C (some centres unmarked) [PA6002]
[2]
  EC50: 0.005 nM
[3]
  EC50: 0.03 nM
[4]
  CC50 at 72 h: > 100 nM
[5]
  CC50 at 72 h: > 100 nM
[6]
  CC50 at 72 h: > 100 nM
[7]; Hepatitis C virus, 72 h
  EC50: 0.148 nM

## COC(=O)N[C@H](C(=O)N1C[C@H](F)C[C@H]1C(=O)Nc1ccc2c(c1)OC(c1ccccc1)n1c-2cc2cc(NC(=O)[C@@H]3C[C@H](F)CN3C(=O)[C@@H](NC(=O)OC)C(C)C)ccc21)C(C)C (some centres unmarked) [PA6010]
[2]
  EC50: 0.00449 nM
[3]
  EC50: 0.107 nM
[4]
  CC50 at 72 h: > 100 nM
[5]
  CC50 at 72 h: > 100 nM
[6]
  CC50 at 72 h: > 100 nM
[7]; Hepatitis C virus, 72 h
  EC50: 0.2 nM

## COC(=O)N[C@H](C(=O)N1CC(F)(F)C[C@H]1C(=O)Nc1ccc2c(c1)OC(c1ccccc1)n1c-2cc2cc(NC(=O)[C@@H]3CC(F)(F)CN3C(=O)[C@@H](NC(=O)OC)C(C)C)ccc21)C(C)C (some centres unmarked) [PA6011]
[2]
  EC50: 0.00118 nM
[3]
  EC50: 0.0476 nM
[4]
  CC50 at 72 h: > 100 nM
[5]
  CC50 at 72 h: > 100 nM
[6]
  CC50 at 72 h: > 100 nM
[7]; Hepatitis C virus, 72 h
  EC50: 0.312 nM

## COC(=O)N[C@H](C(=O)N1CCC[C@H]1C(=O)Nc1ccc2c(c1)O[C@@H](c1cc(F)cc(F)c1)n1c-2cc2cc(NC(=O)[C@@H]3CCCN3C(=O)[C@@H](NC(=O)OC)C(C)C)ccc21)C(C)C [PA6016-B]
[2]
  EC50: 0.00434 nM
[3]
  EC50: 0.018 nM
[4]
  CC50 at 72 h: > 100 nM
[5]
  CC50 at 72 h: > 100 nM
[6]
  CC50 at 72 h: > 100 nM
[7]; Hepatitis C virus, 72 h
  EC50: 0.0615 nM

## COC(=O)N[C@H](C(=O)N1CCC[C@H]1C(=O)Nc1ccc2c(c1)OC(c1cc(F)cc(F)c1)n1c-2cc2cc(NC(=O)[C@@H]3CCCN3C(=O)[C@@H](NC(=O)OC)C(C)C)ccc21)C(C)C (some centres unmarked) [PA6016]
[2]
  EC50: 0.00365 nM
[3]
  EC50: 0.0433 nM
[4]
  CC50 at 72 h: > 100 nM
[5]
  CC50 at 72 h: > 100 nM
[6]
  CC50 at 72 h: > 100 nM
[7]; Hepatitis C virus, 72 h
  EC50: 0.04 to 0.05 nM
[7]; 72 hours
  EC50: 0.0499 nM

## COC(=O)N[C@H](C(=O)N1CC2(CC2)C[C@H]1C(=O)Nc1ccc2c(c1)OC(c1cc(F)cc(F)c1)n1c-2cc2cc(NC(=O)[C@@H]3CC4(CC4)CN3C(=O)[C@@H](NC(=O)OC)C(C)C)ccc21)C(C)C (some centres unmarked) [PA6017]
[2]
  EC50: 0.00236 nM
[3]
  EC50: 0.0268 nM
[4]
  CC50 at 72 h: > 100 nM
[5]
  CC50 at 72 h: > 100 nM
[6]
  CC50 at 72 h: > 100 nM
[7]; Hepatitis C virus, 72 h
  EC50: 0.743 nM

## COC(=O)N[C@H](C(=O)N1C[C@H](F)C[C@H]1C(=O)Nc1ccc2c(c1)OC(c1cc(F)cc(F)c1)n1c-2cc2cc(NC(=O)[C@@H]3C[C@H](F)CN3C(=O)[C@@H](NC(=O)OC)C(C)C)ccc21)C(C)C (some centres unmarked) [PA6018]
[2]
  EC50: 0.00295 nM
[3]
  EC50: 0.0351 nM
[4]
  CC50 at 72 h: > 100 nM
[5]
  CC50 at 72 h: > 100 nM
[6]
  CC50 at 72 h: > 100 nM
[7]; Hepatitis C virus, 72 h
  EC50: 0.102 nM

## COC(=O)N[C@H](C(=O)N1CC(F)(F)C[C@H]1C(=O)Nc1ccc2c(c1)OC(c1cc(F)cc(F)c1)n1c-2cc2cc(NC(=O)[C@@H]3CC(F)(F)CN3C(=O)[C@@H](NC(=O)OC)C(C)C)ccc21)C(C)C (some centres unmarked) [PA6019]
[3]
  EC50: 0.0534 nM
[4]
  CC50 at 72 h: > 100 nM
[5]
  CC50 at 72 h: > 100 nM
[6]
  CC50 at 72 h: > 100 nM
[7]; Hepatitis C virus, 72 h
  EC50: 0.234 nM

## COC(=O)N[C@H](C(=O)N1CCC[C@H]1C(=O)Nc1ccc2c(c1)O[C@@H](c1c(F)c(F)c(F)c(F)c1F)n1c-2cc2cc(NC(=O)[C@@H]3CCCN3C(=O)[C@@H](NC(=O)OC)C(C)C)ccc21)C(C)C [PA6030]
[2]
  EC50: 0.00315 nM
[3]
  EC50: 0.0763 nM
[4]
  CC50 at 72 h: > 100 nM
[5]
  CC50 at 72 h: > 100 nM
[6]
  CC50 at 72 h: > 100 nM
[7]; Hepatitis C virus, 72 h
  EC50: 0.207 nM

## COC(=O)N[C@H](C(=O)N1CCC[C@H]1C(=O)Nc1ccc2c(c1)O[C@@H](c1c(F)c(F)cc(F)c1F)n1c-2cc2cc(NC(=O)[C@@H]3CCCN3C(=O)[C@@H](NC(=O)OC)C(C)C)ccc21)C(C)C [PA6031]
[2]
  EC50: 0.0023 nM
[3]
  EC50: 0.0369 nM
[4]
  CC50 at 72 h: > 100 nM
[5]
  CC50 at 72 h: > 100 nM
[6]
  CC50 at 72 h: > 100 nM
[7]; Hepatitis C virus, 72 h
  EC50: 0.04 to 0.05 nM
[7]; 72 hours
  EC50: 0.0401 nM

## COC(=O)N[C@H](C(=O)N1CCC[C@H]1C(=O)Nc1ccc2c(c1)O[C@@H](c1cc(F)c(F)c(F)c1)n1c-2cc2cc(NC(=O)[C@@H]3CCCN3C(=O)[C@@H](NC(=O)OC)C(C)C)ccc21)C(C)C [PA6032]
[2]
  EC50: 0.00304 nM
[3]
  EC50: 0.0168 nM
[4]
  CC50 at 72 h: > 100 nM
[5]
  CC50 at 72 h: > 100 nM
[6]
  CC50 at 72 h: > 100 nM
[7]; Hepatitis C virus, 72 h
  EC50: 0.147 nM
